Laboratory results as given in PMC12196476, “New Nitrogen-, Oxygen-, and Sulfur-Containing Heterocyclic Compounds as Anti-Colon Cancer Agents: Synthesis, Multitargeted Evaluations, Molecular Docking Simulations and ADMET Predictions” (Pharmaceuticals, 2025).

How the values were obtained:
HUVECs = assay: Cell viability, LDH release assay, normal HUVECs; details: 100 µg/mL, 48 h
Experimental: (§1) The studied compounds were also screened for their cytotoxic effects on HCT-116 and LoVo colon carcinoma cells, as well as normal HUVECs, using the standard LDH assay at a concentration of 100 µg/mL.
(§2) The antiproliferative activities of the newly synthesized compounds 3a–e, 8, 9a–c, 13, 14, 17, 18a–h, 20, 22, 23 and 25 were examined on human colon HCT-116 and LoVo cell lines as well as HUVEC (American Type Culture Collection, Manassas, VA, USA). […]
(§3) medium served used as negative and positive controls, respectively. Percentages of viable cells […]
(§4) were calculated based on relative optical density (OD) values (at 550 nm) for compound-treated […]
(§5) wells (final concentration of 100 μg/mL), compared to the negative control, and expressed as mean value (%) ± SD from two replicates. Graphing dose-response curves representing the compound […]
(§6) concentration versus the percentages of viable cells was also conducted to deduce the half - […]
(§7) Additionally, the safety profiles of the studied compounds were assessed against normal cells […]
(§8) (HUVECs) at final concentration of 100 μg/mL . HUVECs were grown in Dulbecco’s Modified Eagle’s Medium supplemented with 10% FBS, 2 mM glutamine (Sigma Aldrich), 100 units/mL penicillin and […] streptomycin (Life Technologies; Paisley, UK). […]

PDK-1 = PDK-1 (Homo sapiens, UniProt Q15118); assay: In vitro PDK-1 inhibition assay (Kinase-Glo luminescent kinase kit); type: biochemical; details: for inhibition at 100 µg/mL: read-out: Mean Inhibition Percent ± SD, PDK-1
Experimental: Principally, the PDK-1 inhibitory activities were evaluated using the non-radioactive Kinase-Glo™ Luminescent Kinase Kit (Promega Corporation, Madison, WI, USA) following the instructions of the manufacturer.
S3.2.2. In vitro PDK-1 inhibition assay.
The PDK-1 inhibitory activities of the test compounds were evaluated using the non-radioactive
Kinase-Glo™ Luminescent Kinase kit (Promega Corporation, Madison, WI, USA), following the
manufacturer’s protocol. Briefly, 5 μL of assay buffer—containing 10 × 250 mM Tris-HCl, 50 mM
MgCl2, 5 mM ethyleneglycol-bis(β-aminoethylether)-N,N,N′,N′-tetraacetic acid (EGTA), 10 mM
ethylenedi- aminetetraacetic acid (EDTA), and 10 mM dithiothreitol (DTT)—was added to each
well of a 96-well plate, along with 25 μL of distilled water. Subsequently, 5 μL of each test
compound at various concentrations (50, 100, 200 and 300 μg/mL in 1% DMSO) was added to the
respective wells, except for the two control wells, which received 5 μL of either PBS buffer or 1%
DMSO. Then, 5 μL of pyruvate dehydrogenase E1 (PDH E1) protein (10 μM) and 5 μL of ATP
(10 μM) were added to each well. To initiate phosphorylation, 5 μL of PDK-1 (20 μM) in protein
buffer (1 mM MgCl2, 2000 mM KCl, 40 mM K3PO4) was added to all the wells except the control
wells, which received 5 μL of protein buffer instead. The plate was then mixed thoroughly and
incubated at 37 °C for 30 minutes. After incubation, 50 μL of kinase-Glo® reagent was added to each
well, followed by a 10-minute incubation at room temperature with gentle shaking to stabilize the
luminescent signal. Luminescence was then measured using a microplate reader.
The IC50 value—defined as the concentration of a compound required to reduce luminescence by
50%, compared to untreated control wells—was determined for each compound from the
corresponding dose–response curve generated by plotting PDK-1 inhibition (%) versus compound
concentration. Sodium dichloroacetate (SDA, 1000 μM) was used as a reference PDK-1inhibitor. […]

[1] = tested on: LoVo colon carcinoma cells; assay: Cell viability, LDH release assay, LoVo; details: 48 h; for viability at 100 µg/mL / IC50: Homo sapiens, LoVo; for viability at 100 µg/mL: read-out: Mean % of viable cells ± SD, LoVo, 100 µg/mL, 48 h, LDH release assay; for IC50: read-out: Mean IC50 Values in µM ± SD, LoVo cells
Experimental: as §1, §2
(§9) S3.2.4. Cell culture and viability assay.
(§10) The cytotoxic activities of the newly synthesized compounds (3a-e, 8, 9a-c, 13, 14, 17, 18a-h, 20, 22,
(§11) 23, and 25) were examined on human colon cancer cell lines HCT-116 and Lovo (American Type
(§12) Culture Collection, USA). Various concentrations (50, 100, 200, and 400 μg/mL) of test compounds
(§13) were prepared in Dulbecco’s Modified Eagles Medium (PAN-Biotech, Barcelona, Spain),

[2] = DPPH radical scavenging assay; details: three independent experiments; read-out: Mean IC50 (mM) for initial DPPH radicals ± SD
Experimental: The antioxidant activities of the studied compounds were assessed using the 1,1-diphenyl-2-picrylhydrazyl (DPPH) radical scavenging method as detailed by Bersuder et al.. The results were expressed as IC50 (mM)—the concentration of the test compound required to neutralize 50% of DPPH radicals.
The antioxidant efficiencies of target compounds were determined using the 1,1-diphenyl-2-picrylhydrazyl (DPPH) radical scavenging method as detailed by Bersuder et al.. […]
S3.2. Evaluation of Biological Activities.
S3.2.1. In vitro DPPH radical scavenging assay.
The antioxidant efficiencies of compounds—3a−e, 8, 9a−c, 13, 14, 17, 18a−h, 20, 22, 23, and 25—were
determined using the 1,1-diphenyl-2-picrylhydrazyl (DPPH) radical scavenging method as
detailed by Bersuder et al.. Fundamentally, the purple color of the stabilized DPPH radical
fades in the presence of an antioxidant, thus, the change of absorbance can be followed
spectrophotometrically at 519 nm. In the assay, equal volumes (0.5 mL) of DPPH ethanolic solution
and each compound (0-2 mg/mL in DMSO) or butylated hydroxytoluene (BHT) as the reference
were mixed well by shaking. The negative control consisted of the same amount of DMSO and
DPPH solution. After, incubation all mixtures at room temperature in the dark for one hour, the
absorbance of the residual DPPH radicals was measured at 519 nm using the UV‐vis
spectrophotometer. The DPPH radical scavenging activity of each compound (%) was calculated
Scavenging activity = (1 − Acompound/AControl) * 100, where Acompound and Acontrol the absorbance values
of each tested compound (or BHT) and the negative control, respectively. The half maximal
inhibitory concentration (IC50) for each compound in mg/mL was deduced by graphing the dose-
response curve relating the scavenging activity (%) to the compound concentration. Data points
represent the mean ± standard deviation (SD) of three independent determinations.

[3] = tested on: HCT-116 colon carcinoma cells; assay: Cell viability, LDH release assay, HCT-116; details: for viability at 100 µg/mL / IC50: Homo sapiens, HCT-116, 48 h; for viability at 100 µg/mL: read-out: Mean % of viable cells ± SD, HCT-116, 100 µg/mL, 48 h, LDH release assay; for IC50: read-out: Mean IC50 Values in µM ± SD, HCT-116 cells
Experimental: as §1, §2, §9, §10, §11, §12, §13

[4] = target: recombinant human LDHA protein (Homo sapiens, UniProt P00338); assay: In vitro LDHA inhibitory assay (NADH consumption); type: biochemical; details: for inhibition at 100 µg/mL: read-out: Mean Inhibition Percent ± SD, LDHA
From the text: The LDHA inhibitory efficiencies were investigated on Spectramax M2 spectrofluorometer via measuring the amounts of the consumed NADH^40 using an NAD^+/NADH quantification kit. […]
S3.2.3. In vitro LDHA inhibitory assay.
The LDHA inhibitory activity of the test compounds was investigated using Spectramax M2
spectrofluorometer by measuring the amounts of the consumed NADH [42] employing
NAD+/NADH quantification kit. Briefly, the assay medium containing various concentrations of
each test compound (50, 100, 200 and 300 μg/mL) was incubated in assay medium composed of 20
mM of HEPES-K+ buffer (pH 7.2), 20 μM of NADH, 2 mM of pyruvate and 10 ng of purified
recombinant human LDHA protein for 10 min utes. The activity of LDHA would result in reduction
of pyruvate into lactate with concomitant oxidation of NADH to NAD +. Since NADH (reduced
LDHA, could be inversely quantified by monitoring the change in the intensity of the fluorescence
at 340 nm over a 10-minute period. The rate of the fluorescence change (slope) in treated samples
was compared to that obtained from negative control experiment (100 % enzymatic activity) to
determine the percentage of inhibition. The IC50 value—defined as the compound concentration
required to reduce the luminescence by 50%, compared to untreated control wells—was
determined for each compound from the corresponding dose–response curve generated by
plotting LDHA inhibition (%) against compound concentration.
was used as the reference LDHA inhibitor. […]

[5] = Cell viability, LDH release assay, normal HUVECs; details: human, normal HUVECs, Mean % of viable cells ± SD, HUVEC
Experimental: as §1, §2, §3, §4, §5, §6, §7, §8

Chain of PDK-1 (Q15118 29-436): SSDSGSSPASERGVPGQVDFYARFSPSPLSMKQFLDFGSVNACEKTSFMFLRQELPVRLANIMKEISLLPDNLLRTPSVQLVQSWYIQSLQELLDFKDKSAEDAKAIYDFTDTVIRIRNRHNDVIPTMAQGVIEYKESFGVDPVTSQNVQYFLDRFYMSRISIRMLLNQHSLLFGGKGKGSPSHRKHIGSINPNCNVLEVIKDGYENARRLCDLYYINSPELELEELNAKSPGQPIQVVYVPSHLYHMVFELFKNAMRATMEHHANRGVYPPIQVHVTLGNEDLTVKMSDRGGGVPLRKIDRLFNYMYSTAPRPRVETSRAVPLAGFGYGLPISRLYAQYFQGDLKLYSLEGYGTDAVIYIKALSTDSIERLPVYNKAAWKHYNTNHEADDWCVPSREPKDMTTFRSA

| Compound | IC50 [2] | inhibition at 100 µg/mL (PDK-1; 100 µg/mL, three replicates) | IC50 [1] | IC50 [3] | inhibition at 100 µg/mL ([4]; 100 µg/mL, three replicates) | IC50 (PDK-1; three independent experiments, read-out: Mean IC50 µM ± SD, PDK-1) | IC50 ([4]; three independent experiments, read-out: Mean IC50 µM ± SD, LDHA) | Mean % of viable cells ± SD, HUVEC (HUVECs) | Mean Inhibition Percent ± SD, PDK-1 (PDK-1; 100 µg/mL, three replicates) | Mean % of viable cells ± SD, LoVo ([1]; 100 µg/mL, LDH release assay) | Mean % of viable cells ± SD, HCT-116 ([3]; 100 µg/mL, 48 h, LDH release assay) | Mean Inhibition Percent ± SD, LDHA ([4]; 100 µg/mL, three replicates) | viability at 48 h, 100 µg/mL [5] | viability at 100 µg/mL [1] | viability at 100 µg/mL [3] |
| --- | --- | --- | --- | --- | --- | --- | --- | --- | --- | --- | --- | --- | --- | --- | --- |
| N-(3-(2-(1-(2-((2,4-Dimethylphenyl)amino)-2-oxoethyl)-2-oxoindolin-3-ylidene)hydrazinyl)-1-(4-hydroxy-3-methoxyphenyl)-3-oxoprop-1-en-2-yl)benzamide [Compound 25] | 0.162 ± 0.023 mM | – | – | – | – | – | – | 87.94 ± 2.33% | 13.30±1.84% | 71.50 ± 3.54% | 79.00 ± 2.83% | 40.50 ± 3.54% | – | – | – |
| COc1cc2nc(C)n(-c3ccc(-c4nc5ccccc5s4)cc3)c(=O)c2cc1OC [Compound 13, 3-(4-(Benzo[d]thiazol-2-yl)phenyl)-6,7-dimethoxy-2-methylquinazolin-4(3H)-one] | 1.82 ± 0.188 mM | 40.5 ± 2.76% | – | – | 40.2 ± 3.18% | – | – | – | – | – | – | – | 84 ± 2.33% | 86.5 ± 2.12% | 71.5 ± 2.12% |

Now from value to compound, other results behind:

| IC50 [2] | inhibition at 100 µg/mL (PDK-1; 100 µg/mL, three replicates) | IC50 [1] | IC50 [3] | inhibition at 100 µg/mL ([4]; 100 µg/mL, three replicates) | IC50 (PDK-1; three independent experiments, read-out: Mean IC50 µM ± SD, PDK-1) | IC50 ([4]; three independent experiments, read-out: Mean IC50 µM ± SD, LDHA) | Compound | Mean % of viable cells ± SD, HUVEC (HUVECs) | Mean Inhibition Percent ± SD, PDK-1 (PDK-1; 100 µg/mL, three replicates) | Mean % of viable cells ± SD, LoVo ([1]; 100 µg/mL, LDH release assay) | Mean % of viable cells ± SD, HCT-116 ([3]; 100 µg/mL, 48 h, LDH release assay) | Mean Inhibition Percent ± SD, LDHA ([4]; 100 µg/mL, three replicates) | viability at 48 h, 100 µg/mL [5] | viability at 100 µg/mL [1] | viability at 100 µg/mL [3] |
| --- | --- | --- | --- | --- | --- | --- | --- | --- | --- | --- | --- | --- | --- | --- | --- |
| 1.52 ± 0.07 mM | 16.6 ± 2.19% | 320 ± 7.44 µM | 410 ± 13.5 µM | 23.2 ± 1.06% | – | – | CCOC(=O)c1sc(N2C(=O)CSCC2=O)nc1C [Compound 8, Ethyl 2-(3,5-Dioxothiomorpholino)-4-methylthiazole-5-carboxylate] | – | – | – | – | – | 84.6 ± 2.54% | 13.5 ± 0.71% | 26.5 ± 2.12% |
| 0.327 ± 0.007 mM | 80.5 ± 4.95% | 292.1 ± 1.17 µM | 293 ± 5.38 µM | 37 ± 2.83% | 192 ± 5.57 µM | 378 ± 3.98 µM | COc1cc2nc(C)n(C3CCCCC3)c(=O)c2cc1OC [Compound 14, 3-Cyclohexyl-6,7-dimethoxy-2-methylquinazolin-4(3H)-one] | – | – | – | – | – | 95 ± 1.82% | 13 ± 1.14% | 12.5 ± 0.71% |
| 0.658 ± 0.016 mM | 65 ± 3.46% | 202 ± 7.82 µM | 238 ± 8.12 µM | 12.2 ± 1.98% | – | – | COc1cc(/C=N/n2c(C)nc3cc(OC)c(OC)cc3c2=O)ccc1O [Compound 18d, (E)-3-((4-Hydroxy-3-methoxybenzylidene)amino)-6,7-dimethoxy-2-methylquinazoli-N-4(3H)-one] | – | – | – | – | – | 86.3 ± 1.53% | 30.7 ± 4.24% | 38 ± 2% |
